Assay results as given in patent US7767665B2, “1,3-benzothiazinone derivatives and use thereof” (Takeda Pharmaceutical Company Limited, priority 2001, dated 2010).
Structures can show the parent of a compound that is named as a salt.

How the values were obtained:
[1] = test system: primary heart muscle cells from newborn rats; assay: Inhibitory activity on heart muscle cell apoptosis (serum-free culture, viable cell number by WST-8); type: cell-based, Wister rats; settings: Rattus norvegicus, 96 h; mean of three independent experiments; concentration required to increase the mean viable cell number by 50% as compared with that in the absence of test compounds; serum-free Medium 199, 4 days
Excerpt: Inhibitory Activity on Heart Muscle Cell Apoptosis
Newborn rats (within 1 day afterbirth) were obtained from pregnant Wister rats purchased from Charles River, anesthetized under ether, and sterilized with 70% ethanol, and then their hearts were excised with tweezers. The excised hearts were washed with a phosphate-buffered physiological saline (T900; Takara) and cut into pieces with surgical scissors. These tissue pieces were washed 4 to 5 times with a phosphate-buffered physiological saline to remove a majority of blood-derived non-heart muscle cells. To the tissue pieces derived from 10 newborns, 5 ml of enzyme solution (1.25 mg trypsin (Difco) and 0.25 mg collagenase (Sigma) per ml of phosphate-buffered saline (PBS)) was added and the mixture was stirred with a stirrer at 37° C. for 15 minutes. Another 2.5 ml enzyme solution was then added twice repeatedly at a 15-minutes interval. Then, Medium 199 (Gibco) containing 10% fetal calf serum (Biowiker) was added in a half volume of the enzyme solution to terminate the enzyme reaction. The cells were filtered through a Cell Strainer (Falcon) and then centrifuged at 400×g for 5 minutes, whereby the cells were collected.
The cells thus collected from 10 newborns were suspended in 50 ml Medium 199 containing 10% fetal calf serum, plated onto 100 mm Petri dishes (Iwaki) in a volume of 10 ml/dish and cultured for 1 hour in a CO2 incubator set at 5% CO2 and 37° C. The cells were then recovered, filtered through a Cell Strainer and centrifuged at 400×g for 5 minutes to collect the primary heart muscle cells derived from newborn rats.
Then, the heart muscle cells from 10 newborn rats were suspended in 2 ml low-isotonic solution (prepared by dissolving 8.29 g NH4Cl, 1.0 g KHCO3, 37 mg EDTA/2Na (ethylenediaminetetraacetic acid disodium) (Dojindo) in 1 L of water) and left for 3 minutes to disrupt erythrocytes. After 10 ml Medium 199 containing 10% fetal calf serum was added thereto, the primary heart muscle cells from newborn rats were collected by centrifugation at 400×g for 5 minutes. The cells were suspended in Medium 199 containing 10% fetal calf serum and then filtered through a cell strainer. After 0.3% trypan blue was added to, and mildly mixed with, an aliquot of the resulting cell suspension, the number of heart muscle cells was counted on an erythrocyte counting plate.
The primary heart muscle cells from newborn rats were suspended at a density of 3×10^6 cells/ml in Medium 199 containing 10% fetal calf serum, put onto a 96-well plate in a volume of 0.1 ml/well, and then cultured in a CO2 incubator set at 5% CO2 and 37° C. After the plate was stirred with a micromixer (Taiyo Kagaku Kogyo), the medium was exchanged 3 times with serum-free Medium 199, and then test compounds were added thereto. The cells were cultured for additional 4 days to induce apoptosis. Then, fetal calf serum was added thereto at a concentration of 10%, and the cells were further cultured for about 17 hours in a CO2 incubator set at 5% CO2 and 37° C. Finally, the number of viable cells was determined with Cell Counting Kit (Dojindo) using WST-8 (2-(2-methoxy-4-nitrophenyl)-3-(4-nitrophenyl)-5-(2,4-disulfophenyl)-2H-tetrazolium, monosodium salt) as the coloring substrate to determine the inhibition of the heart muscle cell apoptosis.
The above-mentioned experiment was triplicated in an independent manner.
The Mean minimal effective concentration (±SD) was shown for each test compound (Compounds 1 to 5 obtained in Reference Examples) in Table 1. In Table 1, the minimal effective concentration is defined as the concentration required to increase the mean viable cell number by 50% as compared with that in the absence of test compounds.

Structure (SMILES) | melting point | minimal effective concentration [1] [µM]
O=c1nc(-c2cnccn2)sc2ccccc12 [Example 7, 2-Pyrazinyl-4H-1,3-benzothiazine-4-one] | 240.7 to 241.7 °C | 0.021
O=c1nc(-c2ccccn2)sc2cc(Cl)ccc12 [Example 10, 7-Chloro-2-(2-pyridyl)-4H-1,3-benzothiazine-4-one] | 245.3 to 245.6 °C | 0.023
O=c1nc(-c2ccccn2)sc2cc(F)ccc12 [Example 19, 7-Fluoro-2-(2-pyridyl)-4H-1,3-benzothiazine-4-one] | 250 to 250.2 °C | 0.025
O=c1nc(-c2ccccn2)sc2ccc(F)cc12 [Example 20, 6-Fluoro-2-(2-pyridyl)-4H-1,3-benzothiazine-4-one] | 239.9 to 240.4 °C | 0.038
O=c1nc(-c2ccccn2)sc2cccc(F)c12 [Example 21, 5-Fluoro-2-(2-pyridyl)-4H-1,3-benzothiazine-4-one] | 256.5 to 257.2 °C | 0.03
COC(=O)c1ccc(-c2nc(=O)c3ccccc3s2)nc1 [Example 28, Methyl 6-(4-oxo-4H-1,3-benzothiazin-2-yl)nicotinate] |  | 0.025
Cc1ccnc(-c2nc(=O)c3ccc(Cl)cc3s2)c1 [Example 29, 7-Chloro-2-(4-methyl-2-pyridyl)-4H-1,3-benzothiazine-4-one] | 246.2 to 246.7 °C | 0.035
O=c1nc(-c2cnccn2)sc2cc(Cl)ccc12 [Example 30, 7-Chloro-2-(2-pyrazyl)-4H-1,3-benzothiazine-4-one] | 240.6 to 240.9 °C | 0.012
NCCCCCCNC(=O)c1cccc(-c2nc(=O)c3ccccc3s2)n1 [Example 107, N-(6-Aminohexyl)-6-(4-oxo-4H-1,3-benzothiazin-2-yl)-2-pyridinecarboxamide hydrochloride] |  | 0.012
O=c1cccc(-c2nc(=O)c3ccccc3s2)[nH]1 [Example 326, 2-(6-Oxo-1,6-dihydro-2-pyridyl)-4H-1,3-benzothiazine-4-one] | 214.2 to 215.3 °C | 
CC(C)(C)OC(=O)CCc1ccc(-c2nc(=O)c3ccccc3s2)nc1 [Example 327, tert-Butyl 3-[6-(4-oxo-4H-1,3-benzothiazin-2-yl)-3-pyridyl]propanoate] | 160 to 161 °C | 
O=C(O)CCc1ccc(-c2nc(=O)c3ccccc3s2)nc1 [Example 328, 3-[6-(4-Oxo-4H-1,3-benzothiazin-2-yl)-3-pyridyl]propionic acid] | 232.2 to 232.4 °C | 
NC(=O)CCc1ccc(-c2nc(=O)c3ccccc3s2)nc1 [Example 329, 3-[6-(4-Oxo-4H-1,3-benzothiazin-2-yl)-3-pyridyl]propanamide] | 247.5 to 247.8 °C | 
NC(=O)CCc1cccc(-c2nc(=O)c3ccccc3s2)n1 [Example 330, 3-[6-(4-Oxo-4H-1,3-benzothiazin-2-yl)-2-pyridyl]propanamide] | 236.3 to 236.5 °C | 
NC(=O)CCc1ccnc(-c2nc(=O)c3ccccc3s2)c1 [Example 331, 3-[6-(4-Oxo-4H-1,3-benzothiazin-2-yl)-4-pyridyl]propanamide] | 237 to 239.7 °C | 
CC(C)(C)OC(=O)CCOCCc1cccc(-c2nc(=O)c3ccccc3s2)n1 [Example 334, tert-Butyl 3-[2-(6-(4-oxo-4H-1,3-benzothiazin-2-yl)-2-pyridyl)ethoxy]propanoate] | 67.7 to 68.5 °C | 
O=C(O)CCOCCc1cccc(-c2nc(=O)c3ccccc3s2)n1 [Example 335, 3-[2-(6-(4-Oxo-4H-1,3-benzothiazin-2-yl)-2-pyridyl)ethoxy]propionic acid] | 236.6 to 236.7 °C | 

Continued, in another order:

melting point | Structure (SMILES) | minimal effective concentration [1] [µM]
84.7 to 84.9 °C | CC(C)(C)OC(=O)CCOCc1cccc(-c2nc(=O)c3ccccc3s2)n1 [Example 336, tert-Butyl 3-[(6-(4-oxo-4H-1,3-benzothiazin-2-yl)-2-pyridyl)methoxy]propanoate] | 
176.6 to 176.7 °C | O=C(O)CCOCc1cccc(-c2nc(=O)c3ccccc3s2)n1 [Example 337, 3-[(6-(4-oxo-4H-1,3-benzothiazin-2-yl)-2-pyridyl)methoxy]propionic acid] | 
109.9 to 110 °C | Cc1cccc2c(=O)nc(-c3cccc(CCC(=O)OC(C)(C)C)n3)sc12 [Example 338, tert-Butyl 3-[6-(8-methyl-4-oxo-4H-1,3-benzothiazin-2-yl)-2-pyridyl]propanoate] | 
283.8 °C (dec.) | N#Cc1nc(-c2nc(=O)c3ccccc3s2)ccc1CCC(=O)O [Example 340, 3-[2-Cyano-6-(4-oxo-4H-1,3-benzothiazin-2-yl)-3-pyridyl]propanoate] | 
125.5 to 126.5 °C | CSc1cc(CCC(=O)OC(C)(C)C)cc(-c2nc(=O)c3ccccc3s2)n1 [Example 341, tert-Butyl 3-[2-(methylthio)-6-(4-oxo-4H-1,3-benzothiazin-2-yl)-4-pyridyl]propanoate] | 
235.5 to 236.5 °C | CSc1cc(CCC(=O)O)cc(-c2nc(=O)c3ccccc3s2)n1 [Example 342, 3-[2-(Methylthio)-6-(4-oxo-4H-1,3-benzothiazin-2-yl)-4-pyridyl]propionic acid] | 
219.5 to 220 °C | C[S+]([O-])c1cc(CCC(=O)OC(C)(C)C)cc(-c2nc(=O)c3ccccc3s2)n1 (centres unmarked) [Example 343, tert-Butyl 3-[2-(methylsulfinyl)-6-(4-oxo-4H-1,3-benzothiazin-2-yl)-4-pyridyl]propanoate] | 
265.5 to 266 °C | C[S+]([O-])c1cc(CCC(=O)O)cc(-c2nc(=O)c3ccccc3s2)n1 (centres unmarked) [Example 344, 3-[2-(methylsulfinyl)-6-(4-oxo-4H-1,3-benzothiazin-2-yl)-4-pyridyl]propionic acid] | 
223 °C (dec.) | CC(C)(C)OC(=O)CCc1cc(-c2nc(=O)c3ccccc3s2)nc(S(C)(=O)=O)c1 [Example 345, tert-Butyl 3-[2-(methylsulfonyl)-6-(4-oxo-4H-1,3-benzothiazin-2-yl)-4-pyridyl]propanoate] | 
305.5 to 306 °C | CS(=O)(=O)c1cc(CCC(=O)O)cc(-c2nc(=O)c3ccccc3s2)n1 [Example 346, 3-[2-(Methylsulfonyl)-6-(4-oxo-4H-1,3-benzothiazin-2-yl)-4-pyridyl]propionic acid] | 
219 to 220 °C | Cc1nc(-c2nc(=O)c3ccccc3s2)cs1 [Example 347, 2-(2-Methyl-1,3-thiazol-4-yl)-4H-1,3-benzothiazin-4-one] | 
229.1 to 229.8 °C | O=c1nc(-c2nccs2)sc2ccccc12 [Example 348, 2-(1,3-thiazol-2-yl)-4H-1,3-benzothiazin-4-one] | 
209.6 to 210.7 °C | Cc1csc(-c2nc(=O)c3ccccc3s2)n1 [Example 349, 2-(4-Methyl-1,3-thiazol-2-yl)-4H-1,3-benzothiazin-4-one] | 
206.2 to 207.4 °C | CC(=O)N1CCCC1c1ccnc(-c2nc(=O)c3ccccc3s2)c1 (centres unmarked) [Example 351, 2-[4-(1-Acetyl-2-pyrrolidinyl)-2-pyridyl]-4H-1,3-benzothiazine-4-one] | 
194.8 to 195.8 °C | CC(C)(C)OC(=O)N1CCCC1c1ccnc(-c2nc(=O)c3ccccc3s2)c1 (centres unmarked) [Example 352, tert-Butyl 2-[2-(4-oxo-4H-1,3-benzothiazin-2-yl)-4-pyridyl]-1-pyrrolidinecarboxylate] | 
189.9 to 190.7 °C | CC(C)(C)OC(=O)CCc1cc(C#N)nc(-c2nc(=O)c3ccccc3s2)c1 [Example 355, tert-Butyl 3-[2-cyano-6-(4-oxo-4H-1,3-benzothiazin-2-yl)-4-pyridyl]propanoate] | 
271 to 272.7 °C | N#Cc1cc(CCC(=O)O)cc(-c2nc(=O)c3ccccc3s2)n1 [Example 356, 3-[2-Cyano-6-(4-oxo-4H-1,3-benzothiazin-2-yl)-4-pyridyl]propanoate] | 
